# Data as given in patent publication US9169205B2, “Pyrrolidine derivatives, pharmaceutical compositions and uses thereof” (Boehringer Ingelheim International GmbH, priority 2012, dated 2015).
# Molecular target: human ACC2 (Homo sapiens (Human), UniProt O00763)
# Assay: ACC2 assay (spectrophotometric 384 well assay, NADH-linked kinetic method)
# Assay type: biochemical
# Conditions: hACC2 construct lacking 128 N-terminal amino acids, 25° C., 340 nm
# Method: Spectrophotometric 384 Well Assay
# Malonyl CoA formation by acetyl CoA carboxylases is stoichometrically linked to the consumption of ATP. ACC2 activity is measured in a NADH-linked kinetic method measuring ADP generated during the ACC reaction using a coupled lactate dehydrogenase/pyruvate kinase reaction.
# The protein is then expressed in insect cells using a baculoviral expression system. Protein purification is performed by anion exchange.
# All compounds are dissolved in dimethyl sulfoxide (DMSO) to a concentration of 10 mM.
# The enzymatic reaction is then started by addition of a mixture of NADH, acetyl Coenzyme A (both 200 μM f.c.) and ATP (500 uM f.c.). The decrease of the optical density (slope S) is then determined at 25° C. at a wavelength of 340 nm over 15 minutes in a spectrophotometric reader.
# Each assay microtiter plate contains wells with vehicle instead of compound as controls for the non-inhibited enzyme (100% CTL; ‘HIGH’) and wells without acetyl-CoA as controls for non-specific NADH degradation (0% CTL; ‘LOW’).
# Sequence of human ACC2 (O00763 129-2458): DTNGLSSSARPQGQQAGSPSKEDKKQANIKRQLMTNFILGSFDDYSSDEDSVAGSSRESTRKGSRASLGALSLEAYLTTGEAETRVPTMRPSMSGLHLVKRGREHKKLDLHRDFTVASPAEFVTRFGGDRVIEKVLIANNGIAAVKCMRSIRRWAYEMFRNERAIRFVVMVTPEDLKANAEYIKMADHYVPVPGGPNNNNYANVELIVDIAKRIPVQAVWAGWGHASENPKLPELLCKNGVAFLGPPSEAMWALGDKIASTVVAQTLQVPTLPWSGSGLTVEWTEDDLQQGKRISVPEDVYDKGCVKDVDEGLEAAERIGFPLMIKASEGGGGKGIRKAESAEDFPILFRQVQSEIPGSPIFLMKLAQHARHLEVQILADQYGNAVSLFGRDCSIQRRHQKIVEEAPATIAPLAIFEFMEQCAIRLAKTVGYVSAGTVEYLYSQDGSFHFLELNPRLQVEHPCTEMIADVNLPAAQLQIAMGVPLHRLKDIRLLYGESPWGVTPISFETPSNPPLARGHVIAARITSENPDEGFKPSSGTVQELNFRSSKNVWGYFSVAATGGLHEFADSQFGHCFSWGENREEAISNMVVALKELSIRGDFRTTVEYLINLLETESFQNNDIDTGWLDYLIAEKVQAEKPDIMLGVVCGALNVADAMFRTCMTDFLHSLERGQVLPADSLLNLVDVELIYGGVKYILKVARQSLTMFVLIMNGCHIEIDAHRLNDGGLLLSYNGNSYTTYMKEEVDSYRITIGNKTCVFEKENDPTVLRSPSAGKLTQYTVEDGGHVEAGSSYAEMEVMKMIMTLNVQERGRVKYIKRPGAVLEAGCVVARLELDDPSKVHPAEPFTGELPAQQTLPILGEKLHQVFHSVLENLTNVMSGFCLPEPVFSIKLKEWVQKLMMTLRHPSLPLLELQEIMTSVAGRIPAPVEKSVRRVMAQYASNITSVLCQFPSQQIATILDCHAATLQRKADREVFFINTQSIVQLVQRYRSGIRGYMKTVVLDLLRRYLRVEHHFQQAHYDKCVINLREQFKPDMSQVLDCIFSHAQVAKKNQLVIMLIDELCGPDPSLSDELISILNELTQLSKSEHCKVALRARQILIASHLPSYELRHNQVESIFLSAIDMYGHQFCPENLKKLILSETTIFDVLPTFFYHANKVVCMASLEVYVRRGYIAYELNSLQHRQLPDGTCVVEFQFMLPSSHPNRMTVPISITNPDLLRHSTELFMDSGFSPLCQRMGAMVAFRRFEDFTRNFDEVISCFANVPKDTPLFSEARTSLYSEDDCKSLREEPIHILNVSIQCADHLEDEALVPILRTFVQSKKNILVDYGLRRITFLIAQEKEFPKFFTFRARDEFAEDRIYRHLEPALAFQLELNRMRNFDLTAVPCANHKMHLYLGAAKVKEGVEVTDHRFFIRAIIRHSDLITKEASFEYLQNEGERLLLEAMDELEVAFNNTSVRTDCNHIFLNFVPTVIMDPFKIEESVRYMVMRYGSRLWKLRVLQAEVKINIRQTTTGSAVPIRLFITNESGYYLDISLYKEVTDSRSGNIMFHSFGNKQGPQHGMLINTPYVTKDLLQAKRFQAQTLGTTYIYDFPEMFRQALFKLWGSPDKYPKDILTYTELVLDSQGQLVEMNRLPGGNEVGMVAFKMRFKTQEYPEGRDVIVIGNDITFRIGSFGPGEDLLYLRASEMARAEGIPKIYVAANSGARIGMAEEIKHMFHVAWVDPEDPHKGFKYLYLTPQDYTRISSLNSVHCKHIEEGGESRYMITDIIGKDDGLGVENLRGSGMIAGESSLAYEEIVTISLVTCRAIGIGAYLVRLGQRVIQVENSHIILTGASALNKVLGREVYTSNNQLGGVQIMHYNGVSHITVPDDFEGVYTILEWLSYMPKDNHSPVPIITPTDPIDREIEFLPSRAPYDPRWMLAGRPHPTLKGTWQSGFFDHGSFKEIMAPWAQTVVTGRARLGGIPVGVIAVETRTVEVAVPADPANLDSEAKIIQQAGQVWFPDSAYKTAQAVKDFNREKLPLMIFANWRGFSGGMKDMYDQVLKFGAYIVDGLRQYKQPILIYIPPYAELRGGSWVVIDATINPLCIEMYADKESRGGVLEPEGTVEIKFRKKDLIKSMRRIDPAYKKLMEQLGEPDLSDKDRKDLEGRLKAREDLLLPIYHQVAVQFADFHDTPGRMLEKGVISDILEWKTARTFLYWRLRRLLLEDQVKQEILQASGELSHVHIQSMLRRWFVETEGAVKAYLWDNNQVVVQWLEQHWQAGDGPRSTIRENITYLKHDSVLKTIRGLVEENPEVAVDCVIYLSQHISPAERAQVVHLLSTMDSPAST
row,IC50 [µM],SMILES
1,0.16,C[C@H](NC(=O)c1cnc(N)s1)c1ccc(O[C@@H]2CCN(c3ccc(OCC4CC4)cc3)C2)cc1 [Example 2.43]
2,0.071,C[C@H](NC(=O)c1ccon1)c1ccc(O[C@@H]2CCN(c3ccc(OCC4CC4)cc3)C2)cc1 [Example 2.34]
3,0.073,CNC(=O)N[C@@H](C)c1ccc(OC2CCN(c3ccc(OCC4CC4)cc3)C2)cc1 (stereo partly shown) [Example 3.8]
4,0.226,CC(=O)N[C@@H](C)c1ccc(O[C@@H]2CCN(c3cccc(OCC4CC4)c3)C2)cc1 [Example 1.11]
5,0.269,CC(=O)N[C@@H](C)c1ccc(OC2CCN(c3ccc4c(c3)C(C)(C)CO4)C2)cc1 (stereo partly shown) [Example 1.101]
6,0.238,CC(=O)Nc1nc(C)c(C(=O)N[C@@H](C)c2ccc(O[C@@H]3CCN(c4ccc(OC5CC5)cc4C)C3)cc2)s1 [Example 2.63]
7,0.4,C[C@H](NC(=O)CO)c1ccc(O[C@@H]2CCN(c3ccc(OCC4CC4)cc3)C2)cc1 [Example 2.29]
8,1.48,CC(=O)N[C@@H](C)c1ccc(OC2CCN(c3cc4c(cc3C#N)OCCO4)C2)cc1 (stereo partly shown) [Example 1.82]
9,0.397,CC(=O)N[C@@H](C)c1ccc(OC2CCN(c3ccc4c(c3)CCO4)C2)cc1 (stereo partly shown) [Example 1.26]
10,1.68,CCOC1CN(c2ccc(OCC3CC3)cc2)CC1Oc1ccc([C@H](C)NC(C)=O)cc1 (stereo partly shown) [Example 1.74]
11,0.055,C[C@H](NC(=O)c1cnn(C)c1Cl)c1ccc(O[C@@H]2CCN(c3ccc(OCC4CC4)cc3)C2)cc1 [Example 2.44]
12,0.791,CC(=O)N[C@@H](C)c1ccc(OC2CCN(c3ccc(C)cc3F)C2)cc1 (stereo partly shown) [Example 1.39]
13,0.685,COCCOc1ccc(N2CCC(Oc3ccc([C@H](C)NC(C)=O)cc3)C2)c(F)c1 (stereo partly shown) [Example 1.38]
14,0.599,CC(=O)N[C@@H](C)c1ccc(OC2CCN(c3ccc(C)c(Cl)c3)C2)cc1 (stereo partly shown) [Example 1.52]
15,0.443,COc1cc(OCC2CC2(F)F)ccc1N1CCC(Oc2ccc([C@H](C)NC(C)=O)cc2)C1 (stereo partly shown) [Example 1.57]
16,0.229,CC(=O)N[C@@H](C)c1ccc(OC2CCN(c3ccc4c(c3)OCCO4)C2)cc1 (stereo partly shown) [Example 1.7]
17,0.365,CC(=O)Nc1cc(C(=O)N[C@@H](C)c2ccc(OC3CCN(c4ccc(OCC5CC5)cc4)C3)cc2)on1 (stereo partly shown) [Example 8.2]
18,0.204,CCOc1cccc(N2CC[C@@H](Oc3ccc([C@H](C)NC(C)=O)cc3)C2)c1 [Example 1.5]
19,0.107,C[C@H](NC(=O)c1cnc(N)o1)c1ccc(O[C@@H]2CCN(c3ccc(OCC4CC4)cc3)C2)cc1 [Example 2.27]
20,0.079,C[C@H](NC(=O)C1(C)CC1)c1ccc(O[C@@H]2CCN(c3ccc(OCC4CC4)cc3)C2)cc1 [Example 2.10]
21,0.484,COCCCOc1ccc(N2CCC(Oc3ccc([C@H](C)NC(C)=O)cc3)C2)c(F)c1 (stereo partly shown) [Example 1.37]
22,0.108,CC(=O)N[C@@H](C)c1ccc(OC2CCN(c3ccc(OC4CC4)cc3)C2)cc1 (stereo partly shown) [Example 1.6]
23,0.672,CC(=O)N[C@@H](C)c1ccc(OC2CCN(c3ccc(F)c(F)c3)C2)cc1 (stereo partly shown) [Example 1.28]

row,IC50 [µM],SMILES
1,0.993,C[C@H](NC(=O)c1cn(C)nc1C(F)F)c1ccc(O[C@@H]2CCN(c3ccc(OCC4CC4)cc3)C2)cc1 [Example 2.45]
2,0.399,C[C@H](NC(=O)Cc1cnccn1)c1ccc(O[C@@H]2CCN(c3ccc(OCC4CC4)cc3)C2)cc1 [Example 2.3]
3,0.061,CC(=O)N[C@@H](C)c1ccc(OC2CCN(c3ccc(OCC4CC(F)(F)C4)cc3)C2)cc1 (stereo partly shown) [Example 1.96]
4,0.056,C[C@H](NC(=O)Nc1ccon1)c1ccc(OC2CCN(c3ccc(OCC4CC4)cc3)C2)cc1 (stereo partly shown) [Example 3.7]
5,0.273,C[C@H](NC(=O)C1(C#N)CC1)c1ccc(O[C@@H]2CCN(c3ccc(OCC4CC4)cc3)C2)cc1 [Example 2.35]
6,1.28,CC(C)Oc1ccc(N2CCC(Oc3ccc([C@H](C)NC(=O)N4CCOCC4)cc3)C2)cc1 (stereo partly shown) [Example 3.12]
7,0.26,Cc1cc(OC2CC2)ccc1N1CC[C@@H](Oc2ccc([C@H](C)NC(=O)c3cncs3)cc2)C1 [Example 2.60]
8,0.24,CCOc1ccc(N2CCC(Oc3ccc([C@H](C)NC(C)=O)cc3)C2)c(F)c1 (stereo partly shown) [Example 1.19]
9,0.558,CC(=O)N[C@@H](C)c1ccc(OC2CCN(c3ccc4c(c3F)OCO4)C2)cc1 (stereo partly shown) [Example 1.72]
10,0.589,COc1ccc(N2CCC(Oc3ccc([C@H](C)NC(C)=O)cc3)C2)cc1 (stereo partly shown) [Example 1.24]
11,0.383,CCOc1ccc(N2CCC(Oc3ccc([C@H](C)NC(C)=O)cc3)C2)cc1F (stereo partly shown) [Example 1.99]
12,0.061,C[C@H](NC(=O)c1ccno1)c1ccc(O[C@@H]2CCN(c3ccc(OCC4CC4)cc3)C2)cc1 [Example 8.3]
13,0.274,COc1cc(OC2CC2)ccc1N1CCC(Oc2ccc([C@H](C)NC(C)=O)cc2)C1 (stereo partly shown) [Example 1.43]
14,0.845,CC(=O)N[C@@H](C)c1ccc(OC2CCN(c3cccc(OC(F)(F)F)c3)C2)cc1 (stereo partly shown) [Example 1.61]
15,0.397,Cc1cc(OC2CC2)ccc1N1CC[C@@H](Oc2ccc([C@H](C)NC(=O)c3cnco3)cc2)C1 [Example 2.61]
16,0.065,Cc1nocc1C(=O)N[C@@H](C)c1ccc(O[C@@H]2CCN(c3ccc(OCC4CC4)cc3)C2)cc1 [Example 2.37]
17,0.214,CC(=O)N[C@@H](C)c1ccc(OC2CCN(c3cccc(C)c3)C2)cc1 (stereo partly shown) [Example 1.55]
18,0.445,C[C@H](NC(=O)c1c[nH]nc1C(F)(F)F)c1ccc(O[C@@H]2CCN(c3ccc(OCC4CC4)cc3)C2)cc1 [Example 2.48]
19,0.791,CC(=O)N[C@@H](C)c1ccc(OC2CCN(c3ccc(Oc4ccncc4)cc3)C2)cc1 (stereo partly shown) [Example 1.66]
20,0.18,CC(=O)N[C@@H](C)c1ccc(O[C@H]2CCN(c3ccc(OCC4CC4)cc3)C2)cc1 [Example 1.48]
21,1.27,C[C@H](NC(=O)N1CCC1)c1ccc(OC2CCN(c3ccc(OCC4CC4)cc3)C2)cc1 (stereo partly shown) [Example 3.3]
22,0.864,C[C@H](NC(=O)C1(C(=O)N(C)C)CC1)c1ccc(O[C@@H]2CCN(c3ccc(OCC4CC4)cc3)C2)cc1 [Example 2.16]
23,1.15,CCCOc1ccc(N2CCC(Oc3ccc([C@H](C)NC(C)=O)cc3)C2)c(OC)c1 (stereo partly shown) [Example 1.9]

row,IC50 [µM],SMILES
1,0.204,CC(=O)N[C@@H](C)c1ccc(OC2CCN(c3cccc(Cl)c3)C2)cc1 (stereo partly shown) [Example 1.53]
2,0.205,CNC(=O)N[C@@H](C)c1ccc(OC2CCN(c3ccc(OC(C)C)cc3)C2)cc1 (stereo partly shown) [Example 3.9]
3,0.538,COc1ccc(N2CCC(Oc3ccc([C@H](C)NC(C)=O)cc3)C2)cc1C(F)(F)F (stereo partly shown) [Example 1.32]
4,0.46,"COCCCOc1ccc(N2CC[C@@H](Oc3ccc([C@H](C)NC(C)=O)cc3)C2)cc1 [Example 4.1, N—((S)-1-(4-((R)-1-(4-(3-methoxypropoxy)phenyl)pyrrolidin-3-yloxy)phenyl)ethyl)-acetamide]"
5,0.68,Cc1cc(OC2CC2)ccc1N1CC[C@@H](Oc2ccc([C@H](C)NC(=O)CC#N)cc2)C1 [Example 2.59]
6,0.359,C[C@H](NC(=O)c1cc[nH]n1)c1ccc(O[C@@H]2CCN(c3ccc(OCC4CC4)cc3)C2)cc1 [Example 2.13]
7,0.363,CC(=O)N[C@@H](C)c1ccc(O[C@H]2CCN(c3ccc(OC4CC4)cc3C)C2)cc1 [Example 1.104]
8,0.504,C[C@H](NC(=O)N(C)Cc1ccncn1)c1ccc(OC2CCN(c3ccc(OCC4CC4)cc3)C2)cc1 (stereo partly shown) [Example 3.6]
9,0.793,CC(O)C(=O)N[C@@H](C)c1ccc(O[C@@H]2CCN(c3ccc(OCC4CC4)cc3)C2)cc1 (stereo partly shown) [Example 2.33]
10,0.894,CC(=O)N[C@@H](C)c1ccc(OC2CCN(c3ccc(OCC4CCOC4)cc3)C2)cc1 (stereo partly shown) [Example 1.17]
11,0.601,COc1ccc(N2CCC(Oc3ccc([C@H](C)NC(C)=O)cc3)C2)cc1F (stereo partly shown) [Example 1.93]
12,0.105,C[C@H](NC(=O)c1ccns1)c1ccc(O[C@@H]2CCN(c3ccc(OCC4CC4)cc3)C2)cc1 [Example 2.28]
13,0.122,C[C@H](NC(=O)c1c[nH]nc1C#N)c1ccc(O[C@@H]2CCN(c3ccc(OCC4CC4)cc3)C2)cc1 [Example 2.57]
14,0.102,CC(=O)N[C@@H](C)c1ccc(OC2CCN(c3ccc(OCCCF)cc3C)C2)cc1 (stereo partly shown) [Example 1.88]
15,0.705,CC(=O)N[C@H]1C[C@@H](C(=O)N[C@@H](C)c2ccc(O[C@@H]3CCN(c4ccc(OCC5CC5)cc4)C3)cc2)NC1=O [Example 2.6]
16,0.221,CC(=O)N[C@@H](C)c1ccc(OC2CCN(c3cc(C(F)F)ccc3F)C2)cc1 (stereo partly shown) [Example 1.94]
17,0.804,CC(=O)N[C@@H](C)c1ccc(OC2CCN(c3ccc(OCC4(C(F)(F)F)CC4)cc3)C2)cc1 (stereo partly shown) [Example 1.81]
18,0.226,CC(=O)N[C@@H](C)c1ccc(OC2CCN(c3ccc(OC(C)C)cc3C)C2)cc1 (stereo partly shown) [Example 1.85]
19,0.244,CC(=O)N[C@@H](C)c1ccc(OC2CCN(c3ccc(O[C@H]4CCOC4)cc3)C2)cc1 (stereo partly shown) [Example 1.97]
20,0.411,CCC(=O)N[C@@H](C)c1ccc(O[C@@H]2CCN(c3ccc(OC4CC4)cc3C)C2)cc1 [Example 2.62]
21,0.574,CC(=O)N[C@@H](C)c1ccc(OC2CCN(c3ccc4c(c3)OC(F)(F)O4)C2)cc1 (stereo partly shown) [Example 1.80]
22,0.025,CC(=O)N[C@@H](C)c1ccc(OC2CCN(c3ccc(OCC4CC4(F)F)cc3)C2)cc1 (stereo partly shown) [Example 1.16]
23,0.335,CCOc1ccc(N2CCC(Oc3ccc([C@H](C)NC(C)=O)cc3)C2)c(F)c1F (stereo partly shown) [Example 1.62]

row,SMILES,IC50 [µM]
1,CC(=O)N[C@@H](C)c1ccc(OC2CCN(c3ccc(OCc4ccccc4)cc3)C2)cc1 (stereo partly shown) [Example 4.5],0.66
